Experimental data taken from ChEMBL document CHEMBL1201862, “PubChem BioAssay data set” (2004).
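Five concentrations, 48 hours, 96-well plates. Here, GI50 denotes the concentration required for 50% inhibition of growth.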 Active and inactive are the calls of the source. Rule as the data show it: active = GI50 up to about 1.1 µM and inactive = higher.

Experiments:
Experiment in all cases: DTP human tumour cell line panel, 48 h
[1] = test system: SK-OV-3
[2] = test system: SF-295
[3] = test system: OVCAR-8
[4] = test system: SR
[5] = test system: UO-31
[6] = test system: EKVX
[7] = test system: Malme-3M
[8] = test system: K562
[9] = test system: SNB-75
[10] = test system: LOX IMVI
[11] = test system: COLO 205
[12] = test system: 786-0
[13] = test system: NCI-H522
[14] = test system: SF-539
[15] = test system: SN12C
[16] = test system: TK-10

Measured: GI50

CC(C)NC(=O)CCN(C(=O)O)S(=O)(=O)c1ccc(NC(=O)c2ccccc2)cc1
inactive: [1] > 100 µM | [2] > 100 µM | [3] > 54.5 µM | [4] > 52.8 µM | [5] > 100 µM | [6] > 100 µM | [7] > 100 µM | [8] > 43.7 µM | [9] > 100 µM | [10] 39.9 µM | [11] > 40.6 µM | [12] > 79.6 µM | [13] > 100 µM | [14] 24.6 µM | [15] > 100 µM | [16] > 100 µM

CC1=C(c2cc(C(=O)Nc3cccc(C(F)(F)F)c3)nc(NC#N)n2)Sc2ccccc2N1
inactive: [1] > 100 µM | [2] > 100 µM | [4] > 100 µM | [5] > 100 µM | [6] > 100 µM | [7] > 100 µM | [8] > 100 µM | [9] > 100 µM | [10] > 100 µM | [11] > 100 µM | [12] 97.5 µM | [14] > 100 µM | [15] > 100 µM | [16] > 100 µM

CN(C)CC1CCC(=C2CCCC2)C1=O (stereo not drawn)
inactive: [1] > 100 µM | [2] > 100 µM | [3] 20 µM | [4] 4.47 µM | [5] 18.3 µM | [6] 18.6 µM | [7] 5.62 µM | [8] 2.86 µM | [9] 16.2 µM | [10] 16.6 µM | [11] 14.9 µM | [12] 7.52 µM | [13] 1.71 µM | [14] 20 µM | [15] 10.7 µM | [16] 11.5 µM

COc1ccc2c(c1)[n+]([O-])c(C(=O)CC(=O)C(=O)Nc1cccc(Cl)c1C)c(C)[n+]2[O-]
inactive: [1] > 100 µM | [2] > 100 µM | [3] > 100 µM | [4] 34 µM | [5] > 100 µM | [6] > 100 µM | [7] > 100 µM | [8] 60.7 µM | [9] > 100 µM | [10] > 100 µM | [11] 53.7 µM | [12] > 100 µM | [13] 26.2 µM | [14] > 100 µM | [15] > 100 µM | [16] > 100 µM

CCOC(=O)c1c(-c2ccccc2)oc(-c2ccccc2)c1C(=O)OCC
inactive: [1] > 100 µM | [2] > 100 µM | [3] > 100 µM | [4] 68.2 µM | [5] > 100 µM | [6] > 100 µM | [7] > 100 µM | [8] 67.3 µM | [9] > 100 µM | [10] > 100 µM | [11] 99.1 µM | [12] > 100 µM | [13] > 100 µM | [14] > 100 µM | [15] > 100 µM | [16] > 100 µM

CCCCC#COP(=O)(OCC)OCC
inactive: [1] > 100 µM | [2] > 100 µM | [3] > 100 µM | [4] > 100 µM | [5] > 100 µM | [6] > 100 µM | [7] > 100 µM | [10] > 100 µM | [11] > 100 µM | [12] > 100 µM | [13] > 100 µM | [14] > 100 µM | [15] > 100 µM | [16] > 100 µM

O=C1c2ccccc2C(Br)(Br)c2ccccc21
inactive: [1] > 31.6 µM | [2] > 31.6 µM | [3] > 100 µM | [4] > 31.6 µM | [5] > 31.6 µM | [6] > 100 µM | [7] > 31.6 µM | [8] > 31.6 µM | [9] 14.9 µM | [10] > 31.6 µM | [11] > 31.6 µM | [12] > 31.6 µM | [13] 25.4 µM | [14] 57.8 µM | [15] > 31.6 µM | [16] > 100 µM

CS(=O)(=O)NNS(=O)(=O)c1ccc(Cl)cc1
inactive: [2] > 100 µM | [3] > 100 µM | [4] 62.8 µM | [5] 35.6 µM | [6] 76.4 µM | [7] > 100 µM | [8] > 100 µM | [9] > 100 µM | [10] > 100 µM | [11] > 100 µM | [12] > 100 µM | [13] 90.8 µM | [14] > 100 µM | [15] > 100 µM | [16] > 100 µM

CCCCCC1C2C(=O)NC(=O)C1C(=O)NC2=O (stereo not drawn)
inactive: [1] > 100 µM | [2] > 100 µM | [3] > 100 µM | [5] > 100 µM | [6] > 100 µM | [7] > 100 µM | [8] > 100 µM | [9] > 100 µM | [10] > 100 µM | [11] > 100 µM | [12] > 100 µM | [13] > 100 µM | [14] > 100 µM | [15] > 100 µM | [16] > 100 µM

COC(=O)C1(F)C(=O)NC(=O)NC1OC (stereo not drawn)
inactive: [1] > 100 µM | [2] > 100 µM | [3] 34.1 µM | [4] > 100 µM | [5] 70.8 µM | [7] 34.9 µM | [8] 96.2 µM | [9] 39.2 µM | [10] 11.9 µM | [11] 68.5 µM | [12] 39.7 µM | [13] 75.5 µM | [14] 2.58 µM | [15] 69 µM | [16] > 100 µM

COc1ccc2c(c1)NC1(O)c3ccccc3C(=O)C21O (stereo not drawn)
inactive: [1] > 100 µM | [2] > 100 µM | [3] > 100 µM | [4] > 100 µM | [5] > 100 µM | [7] > 100 µM | [8] > 100 µM | [9] > 100 µM | [10] > 100 µM | [11] > 100 µM | [12] > 100 µM | [13] > 100 µM | [14] > 100 µM | [15] > 100 µM | [16] > 100 µM

Cc1ccc2c(c1)C(c1cccc3ccccc13)OC2=O (stereo not drawn)
inactive: [1] 86.3 µM | [2] 61 µM | [3] 84.5 µM | [4] > 100 µM | [5] > 100 µM | [6] 69.8 µM | [7] 51.6 µM | [8] > 100 µM | [9] 36.4 µM | [10] > 100 µM | [11] > 100 µM | [12] 56.9 µM | [13] > 100 µM | [15] > 100 µM | [16] 31.6 µM

COC1=CC2(C=CC1=O)c1cc(OC)c(OC)cc1CCN2C(=O)c1ccccc1 (stereo not drawn)
inactive: [1] > 100 µM | [2] > 100 µM | [3] > 100 µM | [5] 97.9 µM | [6] > 100 µM | [7] > 100 µM | [8] > 100 µM | [9] > 100 µM | [10] > 100 µM | [11] > 100 µM | [12] > 100 µM | [13] > 100 µM | [14] > 100 µM | [15] > 100 µM | [16] > 100 µM
